Test results published in PMC6455008, “Methylation at the C-3′ in D-Ring of Strigolactone Analogs Reduces Biological Activity in Root Parasitic Plants and Rice” (Frontiers in Plant Science, 2019).
Read-outs that look alike come from different tables or passages of the source.

What was measured:
rice d10 mutant = assay: Rice micro tillering bioassay (d10 mutant, hydroponic); format: in vivo
Method: Rice seeds (d10) were sterilized with 2.5% sodium hypochlorite for 15 min. After thorough washing with sterile MilliQ water, the seeds were kept in water for 2 days at 30°C in the dark for imbibition and pre-germination. The pre-germinated seeds were then transferred to moist filter paper in 90-mm petri plates and incubated at 30°C overnight. The plates with germinated seeds were then shifted in a growth cabinet with fluorescent white light (130–180 μM m^−2 s^−1) for 1 week. Seven days-old seedlings were moved to 50-ml falcon tubes (one seedling per tube) containing modified half-strength Hoagland nutrient solution in greenhouse. After 1 week, rice plants were treated with 2.5 μM of each SL analog. Mock and GR24 (2.5 μM) were included as control treatments. Six applications of each SL analog were done two times in a week. After 3 weeks of application, number of tillers per plant, plant height, and fresh biomass were measured at final harvest.

Arabidopsis seedlings [1] = assay: Arabidopsis hypocotyl elongation assay; format: in vivo; details: Arabidopsis thaliana, compared to control seedlings, read-out: inhibition of hypocotyl growth (reduction in hypocotyl length)
Method: (§1) The sterilized Arabidopsis seeds were grown in petri plates that were first kept at 4°C in darkness for 3 days. For hypocotyl study, the petri plates were exposed to continuous white light for 24 h, then transferred to continuous monochromatic red light (20 μmol m^−2 s^−1, 22°C) conditions for another 4 days. For lateral root density, the plates were vertically grown at 22°C in Percival incubator under long day conditions (16 h at 22°C/8 h at 16°C day/night, 60% relative humidity, 60–70 μmol m^−2 s^−1 white light) for 8 days. After scanning, the hypocotyl length and number of lateral roots were recorded using publicly available ImageJ software.^1

Arabidopsis seedlings [2] = assay: Arabidopsis lateral root density assay; format: in vivo; details: Arabidopsis thaliana, compared to control seedlings
Method: as §1

S. hermonthica seeds = assay: Parasitic seed germination bioassay, Striga; format: in vivo, Striga hermonthica; details: for EC50: Striga hermonthica
Method: (§4) Germination activity of SL analogs on S. hermonthica and P. aegyptiaca seeds was tested by following the procedure described before ([Jamil et al., 2012]). The preconditioned Striga and Phelipanche seeds were treated with 50 μl of each SL analog solution at a concentration range (10^−5–10^−12 M). GR24 and sterile MilliQ water were included as positive and negative controls, respectively. The treated seeds were allowed to germinate in the dark for 24 h at 30°C (for Striga) and for 1 week at 25°C (for Phelipanche). The germinated and non-germinated seeds were counted under a binocular microscope, and germination rate (in %) was calculated.
(§5) Collected data were analyzed statistically using statistical software package R (version 3.2.2).

P. aegyptiaca seeds = assay: Parasitic seed germination bioassay, Phelipanche; format: in vivo, Phelipanche aegyptiaca
Method: as §4, §5

Striga seeds [3] = assay: Stability of formulated SL analogs in sand (Striga germination readout); format: physicochemical, Striga hermonthica; details: 1.0 μM, sand, 30°C, 7 days
Method: (§2) The stability of formulated SL analogs was further tested in sand culture. About 1.5 ml of silver sand was added in each of 6 wells of 24-well plates. Then, 800 μl of formulated SL analogs (1.0 μM) was added in each of the six wells. The plates were sealed firmly with para-film, wrapped in aluminum foil, and placed at 30°C from day 1 to day 7. After 7 days, glass fiber discs containing preconditioned Striga seeds were placed on the top of each of the six wells and incubated in the dark at 30°C for 24 h. The germinated and non-germinated seeds were counted from each disc. In addition, the viability of formulated SL analogs was also tested in aqueous solution for 7 weeks at 30°C. About 800-μl aqueous solution of formulated SL analogs (1.0 μM) was added in a black Eppendorf tube weekly up to 6 weeks and incubated at 30°C. On the seventh week, about 50 μl of each analog was applied on a glass fiber disc containing preconditioned Striga seed and put again in the dark in sealed petri plates at 30°C for 24 h. Germinated and non-germinated seeds were counted from each disc.

Striga seeds [4] = assay: Stability of formulated SL analogs in aqueous solution under storage (Striga germination readout); format: physicochemical, Striga hermonthica; details: 1.0 μM
Method: as §2

ShHTL7 = biological target: T1, ShHTL7 (Striga hermonthica, UniProt A0A0M3PNA2); assay: In vitro YLG hydrolysis competition assay, ShHTL7; format: biochemical
T1 sequence (A0A0M3PNA2 1-271): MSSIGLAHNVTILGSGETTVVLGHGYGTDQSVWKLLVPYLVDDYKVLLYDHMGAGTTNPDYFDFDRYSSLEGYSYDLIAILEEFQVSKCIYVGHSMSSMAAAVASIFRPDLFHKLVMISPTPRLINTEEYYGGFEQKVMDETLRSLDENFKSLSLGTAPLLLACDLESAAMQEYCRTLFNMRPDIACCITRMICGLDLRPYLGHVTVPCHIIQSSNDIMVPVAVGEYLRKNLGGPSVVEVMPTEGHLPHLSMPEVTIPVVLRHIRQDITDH
Method: (§3) Protein expression and purification of ShHTL7 and Oryza sativa D14 (OsD14) was carried out according to the procedure described earlier ([Jamil et al., 2018]). In vitro Yoshimulactone Green (YLG) hydrolysis assays ([Tsuchiya et al., 2015]) were carried out using 3.0 μM of protein ShHTL7 and OsD14 in a reaction buffer (1X PBS buffer, pH 7.3) with 0.1% DMSO at a 100-μl volume on a 96-well black plate (Greiner). For competitive assays, rac-GR24, AR8, MP13, and MP26 (at range between 0.01 and 50 μM) were co-incubated with 1.0 μM of YLG (Tokyo Chemical Industry Co. Ltd., product number E1238) for 60 min at room temperature. Fluorescent intensity was measured by spectraMax i5 (Molecular Devices) at excitation by 480 nm and detection by 520 nm. The change in fluorescence observed over the course of 1 h of YLG in buffer without protein was subtracted from the data collected in presence of protein. IC50 values were calculated by GraphPad (Prism 7).

OsD14 = biological target: T2, OsD14 (Oryza sativa subsp. japonica, UniProt Q10QA5); assay: In vitro YLG hydrolysis competition assay, OsD14; format: biochemical
T2 construct: made in house
T2 sequence (Q10QA5 1-318): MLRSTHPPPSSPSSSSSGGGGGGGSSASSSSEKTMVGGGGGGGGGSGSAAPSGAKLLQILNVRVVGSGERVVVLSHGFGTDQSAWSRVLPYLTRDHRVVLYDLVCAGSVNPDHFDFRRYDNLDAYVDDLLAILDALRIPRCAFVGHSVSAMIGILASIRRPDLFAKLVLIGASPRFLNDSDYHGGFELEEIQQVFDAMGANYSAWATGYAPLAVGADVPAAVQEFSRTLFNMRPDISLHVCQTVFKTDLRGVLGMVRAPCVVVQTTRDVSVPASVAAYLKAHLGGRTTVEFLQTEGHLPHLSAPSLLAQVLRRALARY
Method: as §3

Striga hermonthica = assay: Striga emergence in pots under greenhouse conditions (suicidal germination, rice host); format: in vivo; details: formulated 1.0 μM
Method: About 10 mg of (ca 4,000) Striga seeds were thoroughly mixed in 2 L of sand and soil mixture (1:1) and added in 3-L perforated plastic pot containing 0.5 L of clean soil in the bottom. Striga seeds were first preconditioned by giving light irrigation and putting pots at 35°C in greenhouse for 10 days. Each pot was sprayed with 20-ml (1.0 μM) formulated SL analogs up to 10 days at 2-day intervals. A light irrigation was given next day of each application to move the compound to Striga seeds and they were allowed to germinate for suicidal death without host for another 1 week. Then, three rice seedlings (5 days old) were planted in the middle of each pot. The rice plants were grown under normal growth condition (30°C, 70% RH) for 8 weeks. Number of emerged Striga plants in each pot were counted.

CC1=C[C@H](O/C=C2/C(=O)O[C@@H]3c4ccccc4C[C@H]23)OC1=O [GR24, reference compound]
inhibition at 2.5 µM (rice d10 mutant; Oryza sativa, read-out: tillering inhibition): 76% | number of tillers per plant (rice d10 mutant; SL-deficient d10 mutant, hydroponic, 2.5 μM, twice a week up to 3 weeks, untreated d10 six tillers): 1.4 tillers per plant | plant height compared to mock (rice d10 mutant; d10 mutant, 2.5 μM): significant increase in plant height | inhibition at 1 µM (Arabidopsis seedlings [1]): 37% | inhibition at 1 µM (Arabidopsis seedlings [2]): 53% | Striga germination rate (S. hermonthica seeds; 1.0 μM, formulated and non-formulated, 24 h at 30°C): 75% | EC50 (S. hermonthica seeds; read-out: EC50 Striga seed germination, formulated): 0.44 nM | EC50 (S. hermonthica seeds; read-out: EC50 Striga seed germination, non-formulated): 1.9 nM | EC50 (P. aegyptiaca seeds; Phelipanche aegyptiaca, read-out: EC50 P. aegyptiaca seed germination, formulated): 9.3 nM | P. aegyptiaca germination rate (P. aegyptiaca seeds; non-formulated, 1.0 μM, 1 week at 25°C): 75% | Striga germination rate on seventh day of incubation in sand (Striga seeds [3]): around 20% | Striga germination rate maintained for 5 weeks of storage (Striga seeds [4]; 30°C, 5 weeks): around 38% | Striga germination rate after 6 weeks of storage (Striga seeds [4]; 30°C, 6 weeks): 11% | Striga germination rate before storage (Striga seeds [4]; before storage): 76% | IC50 (ShHTL7): 1640 ± 520 nM | IC50 (OsD14): 1240 ± 90 nM | decrease in Striga emergence compared to mock at 10 WAS (Striga hermonthica; 10 weeks after sowing): 82% | Striga hermonthica emergence, 5 WAS (Striga hermonthica; mean ± SE, n=5, 5 weeks after sowing): 0.0±0.0 | Striga hermonthica emergence, 6 WAS (Striga hermonthica; mean ± SE, n=5, 6 weeks after sowing): 0.0±0.0 | Striga hermonthica emergence, 7 WAS (Striga hermonthica; mean ± SE, n=5, 7 weeks after sowing): 1.0±0.6 | Striga hermonthica emergence, 8 WAS (Striga hermonthica; mean ± SE, n=5, 8 weeks after sowing): 1.6±0.5 | Striga hermonthica emergence, 9 WAS (Striga hermonthica; mean ± SE, n=5, 9 weeks after sowing): 1.6±0.5 | Striga hermonthica emergence, 10 WAS (Striga hermonthica; mean ± SE, n=5, 10 weeks after sowing): 2.4±0.8 | percent decrease in Striga hermonthica emergence over mock, 8 WAS (Striga hermonthica; negative = decrease, 8 WAS): -85% | percent decrease in Striga hermonthica emergence over mock, 9 WAS (Striga hermonthica; negative = decrease, 9 WAS): -84% | percent decrease in Striga hermonthica emergence over mock, 10 WAS (Striga hermonthica; negative = decrease, 10 WAS): -82%
